Assay results from PMC11440583 (2024).

Legend:
[1] = system: Tel22 (Tel22-Na+ antiparallel; Tel22-K+ hybrid) (DNA, G4) AGGGTTAGGGTTAGGGTTAGGG; experiment: 1H NMR titration; conditions: up to 2.0 equiv compound
[2] = system: c-MYC Pu22 (DNA, G4) TGAGGGTGGGTAGGGTGGGTAA; experiment: 1H NMR titration; conditions: K+; 0-1.5 equiv compound
[3] = system: Tel22 (Tel22-Na+ antiparallel; Tel22-K+ hybrid) (DNA, G4) AGGGTTAGGGTTAGGGTTAGGG; experiment: CD (or UV) thermal melting; conditions: 10 mM Tris pH 7.2, 8 μM compound, 2 μM DNA
[4] = system: Bom17 (DNA, G4) GGTTAGGTTAGGTTAGG; experiment: CD (or UV) thermal melting; conditions: 15 mM KCl; 10 mM Tris pH 7.2; 8 μM compound, 2 μM DNA
[5] = system: TBA (DNA, G4) GGTTGGTGTGGTTGG; experiment: CD (or UV) thermal melting; conditions: 5 mM KCl; 10 mM Tris pH 7.2; 8 μM compound, 2 μM DNA
[6] = system: VEGF (DNA, G4) GGGAGGGTTGGGGTGGG; experiment: CD (or UV) thermal melting; conditions: 5 mM KCl; 10 mM Tris pH 7.2; 8 μM compound, 2 μM DNA
[7] = system: c-MYC Pu22 (DNA, G4) TGAGGGTGGGTAGGGTGGGTAA; experiment: CD (or UV) thermal melting; conditions: 5 mM KCl; 10 mM Tris pH 7.2; 8 μM compound, 2 μM DNA
[8] = system: c-MYC Pu24T (c-MYC Pu24-T; c-MYC Pu24) (DNA, G4) TGAGGGTGGTGAGGGTGGGGAAGG; experiment: CD (or UV) thermal melting; conditions: 5 mM KCl; 10 mM Tris pH 7.2; 8 μM compound, 2 μM DNA
[9] = system: dsDNA (DNA, duplex) CAATCGGATCGAATTCGATCCGATTG; experiment: CD (or UV) thermal melting; conditions: 5 mM KCl; 10 mM Tris pH 7.2; 8 μM compound, 2 μM DNA
[10] = system: F-Tel22-Na+-T (DNA, G4) AGGGTTAGGGTTAGGGTTAGGG; experiment: FRET melting with dsDNA competitor; conditions: 40 mM NaCl; 10 mM sodium cacodylate pH 7.2; 2 μM compound, 0.2 μM G4; 0-20 μM dsDNA
[11] = system: Cy5-HIF-1α (DNA, G4) GCGCGGGGAGGGGAGAGGGGGCGGGAGCGCG; experiment: microscale thermophoresis (ligand-induced fluorescence quenching); conditions: 100 mM KCl; 50 mM Tris pH 7.2, 0.05% Tween 20; 50 nM G4

**Q.** What does the source list for `NCCNCCNC(=O)c1cc(F)c(/N=N/c2c(F)cc(-c3ccncc3)cc2F)c(F)c1`?
**A.** binding [1]: yes; binding [2]: yes; ΔTm ([3]; 5 mM KCl): 9.9 °C; ΔTm ([3]; 15 mM NaCl): 5.8 °C; ΔTm [4]: 8.8 °C; ΔTm [5]: 6.3 °C; ΔTm [6]: 14.7 °C; ΔTm [7]: 19.2 °C; ΔTm [8]: 4.2 °C; ΔTm [9]: 1.0 °C; binding [10]: yes; association constant [11]: 2.8 × 10^5 M^–1
